Assay results from patent US9670259B2, “Method of inhibiting angiogenesis using inhibitors of G-protein-coupled receptor kinase interacting protein-1 (GIT1)” (University of Rochester, priority 2013, dated 2017).

What was measured:
Type in all cases: cell-based, human
Dll4 = Dll4 mRNA (qRT-PCR) and protein (western blot) after GIT1 depletion with siRNA in HUVECs; details: siRNA 48 h, compared to control siRNA
Method: (§1) Human umbilical vein endothelial cells (HUVECs) were isolated and grown in Medium 200 with low serum growth supplement (Cascade Biologics, Inc., Portland, Oreg.) as described previously (Carmeliet et al., Nature 436:193 (2005), which is hereby incorporated by reference in its entirety). GIT1 siRNA ([…]) (SEQ ID NO: 21) and control non-silencing siRNA([…]) (SEQ ID NO: 22) were designed and synthesized (Ambion) and Dll4 siRNA was purchased (Santa Cruz). The siRNA were transfected at 100 nM for 48 h as previously described by our laboratory (Yin et al., Mol. Cell Biol., 24:875 (2004), which is hereby incorporated by reference in its entirety). […]
(§2) For immunoblotting, cells were lysed in RIPA buffer (150 mM NaCl, 1% Nonidet P-40, […], 0.1% SDS, 50 mM Tris-HCl, pH 8.0). Protein concentrations in the lysates were determined. […] After incubating with fluorescence-conjugated secondary antibodies, immunoreactive proteins were visualized by an Odyssey infrared imaging system (LI-COR Biotechnology, Nebraska). […]
(§3) Total RNA from retinas and lungs of GIT1 WT and KO mice or HUVECs was obtained using TRIzol reagent (Invitrogen) according to the manufacturer's protocol. […] Target genes mRNA expression and mitochondrial DNA content were determined by qRT-PCR (Applied Biosystems). […]

Notch1 = Notch1 expression and cleavage (N1-ICD) after GIT1 depletion with siRNA in HUVECs; details: siRNA treated
Method: Human umbilical vein endothelial cells (HUVECs) were isolated and grown in Medium 200 with low serum growth supplement (Cascade Biologics, Inc., Portland, Oreg.) as described previously (Carmeliet et al., Nature 436:193 (2005), which is hereby incorporated by reference in its entirety). GIT1 siRNA ([…]) (SEQ ID NO: 21) and control non-silencing siRNA([…]) (SEQ ID NO: 22) were designed and synthesized (Ambion) and Dll4 siRNA was purchased (Santa Cruz). The siRNA were transfected at 100 nM for 48 h as previously described by our laboratory (Yin et al., Mol. Cell Biol., 24:875 (2004), which is hereby incorporated by reference in its entirety). HEK293 cells were cultured in Dulbecco's modified Eagle's medium supplemented with 10% fetal bovine serum (FBS), penicillin, and streptomycin at 37° C. in 5% CO2. HEK293T cells were transfected by Lipofectamine/plus (Invitrogen).
For immunoblotting, cells were lysed in RIPA buffer (150 mM NaCl, 1% Nonidet P-40, […], 0.1% SDS, 50 mM Tris-HCl, pH 8.0). Protein concentrations in the lysates were determined. The protein samples were separated by SDS-PAGE, transferred to nitrocellulose membranes, and incubated with appropriate primary antibodies. After incubating with fluorescence-conjugated secondary antibodies, immunoreactive proteins were visualized by an Odyssey infrared imaging system (LI-COR Biotechnology, Nebraska). […]

Hey1 = Hey1 mRNA (qRT-PCR) and protein (western blot) after GIT1 depletion with siRNA in HUVECs; details: compared to control siRNA
Method: as §1, §2, §3

ERK1/2 = assay: VEGF induced ERK1/2 activation in HUVEC infected with SHD-Flag lentivirus; details: lentivirus overexpression, VEGF 10 ng/mL
Method: (§4) In an effort to identify the potential GIT1 inhibitor peptides, a flag-tagged SHD domain of GIT1 (SHD-Flag) was cloned into a lentivirus vector.
(§5) HUVECs were seeded on 6 well plate at 80% confluence. The next day, cells were infected with control and SHD-Flag containing Lentivirus with Polybrene. After 1 day, infection media was changed with fresh complete M200 media (containing 5% FBS+1% Penicillin-Streptomycin and 2% LSGS). After 48 hours, cells were serum starved with serum free M200 media for 1 hour and stimulated with VEGF (10 ng/mL) for different time points ranging from 0 to 30 minutes. Next cells were lysed and used for western blot analysis to measure PLCγ and ERK1/2 activation. […] No effect of SHD overexpression on VEGF induced ERK1/2 activation was observed. Flag tagged SHD expression in HUVECs were confirmed by detecting Flag in the lysate

HUVEC = HUVEC tube formation on matrigel after SHD overexpression; details: HUVECs with VEGF on growth factor reduced matrigel, 16 hours, compared to control
Method: In addition to PLCγ signaling, the effect of SHD overexpression on HUVEC tube formation in vitro was also assessed. Endothelial cells reorganize themselves in a 3D matrix like matrigel and form tubes which is an index of in vitro angiogenesis. After 48 hours, cells were cultured at a constant number (10^4 cells/well) with VEGF on growth factor reduced matrigel (30 uL) coated 96 well plate and incubated for 16 hours.

PLCγ = assay: VEGF induced PLCγ activation in HUVEC infected with SHD-Flag lentivirus; details: lentivirus overexpression, VEGF 10 ng/mL
Method: as §4, §5

Molecule | increase of Dll4 mRNA expression (Dll4) | increase of Dll4 protein expression (Dll4) | Notch1 expression (Notch1) | enhancement of expression of N1-ICD (Notch1; normalized to total Notch1) | increase of Hey1 mRNA expression (Hey1) | increase of Hey1 protein expression (Hey1) | VEGF induced ERK1/2 activation (ERK1/2) | formation of tube-like structures (HUVEC) | VEGF induced PLCγ activation (PLCγ)
GIT1 siRNA: siRNA AAGCTGCCAAGAAGAAGCTAC (SEQ ID NO: 21), synthesized (Ambion) (listed as DNA, chemistry not given here) | 3.2±0.6 fold | 6.3±0.3 fold | no change | 1.7±0.4 fold | 5.2±0.57 fold | 3.0±0.3 fold |  |  | 
SHD-Flag: flag-tagged SHD domain of GIT1 (residues 250-420 of SEQ ID NO: 1) cloned into a lentivirus vector (protein, listed as Homo sapiens, Flag tag; lentivirus vector) QMADSLDLSELAKAAKKKLQALSNRLFEELAMDVYDEVDRRENDAVWLATQNHSTLVTERSAVPFLPVNPEYSATRNQGRQKLARFNAREFATLIIDILSEAKRRQQGKSLSSPTDNLELSLRSQSDLDDQHDYDSVASDEDTDQEPLRSTGATRSNRARSMDSSDLSDGA |  |  |  |  |  |  | No effect | inhibited the formation of tube-like structures | blocked VEGF induced PLCγ activation
